From patent publication US20220162191A1, “SMALL MOLECULE MODULATORS OF IL-17” (LEO PHARMA A/S, priority 2019, published 2022)
pEC50: −log10 of the molar value.

target: T1, human IL-17AA (Homo sapiens, UniProt Q16552); assay: IL-8 release assay in human epithelial keratinocytes adult (HEKa); type: cell-based; details: 3 ng/ml human IL-17AA + 10 ng/ml human TNFalpha, 68-72 h, IL-8 by HTRF, read-out: Rel EC50 L-8 release assay
T1 construct: host or cells: HEK (human embryonic kidney) cells
T1 sequence (Q16552 24-155) 1: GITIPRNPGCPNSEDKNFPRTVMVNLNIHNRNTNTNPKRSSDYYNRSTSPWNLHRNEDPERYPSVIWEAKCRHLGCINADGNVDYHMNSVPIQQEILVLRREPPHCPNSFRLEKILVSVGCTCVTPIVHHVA
T1 sequence (Q16552 24-155) 2: T1 sequence (Q16552 24-155) 1
How it was run: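 Adult human keratinocytes in Epilife with HKGS minus hydrocortisone, treated with compound then stimulated with final 3 ng/ml HEK-derived human IL-17AA plus 10 ng/ml TNF-alpha for 68–72 h at 37 °C; TNF-alpha alone defines 100% inhibition. Secreted IL-8 by HTRF; relative IC50 and Emax from four-parameter fits.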

SMILES | pEC50
Cc1n[nH]c(C)c1-c1ccc(NC(=O)[C@H](Cc2cc(-c3ccnc(N4CCC5(COC5)C4)n3)ccc2Cl)NC(=O)C2(F)CC2)cc1 [Example 316, N-[(1S)-1-[[2-chloro-5-[2-(2-oxa-7-azaspiro[3.4]octan-7-yl)pyrimidin-4-yl]phenyl]methyl]-2-[4-(3,5-dimethyl-1H-pyrazol-4-yl)anilino]-2-oxo-ethyl]-1-fluoro-cyclopropanecarboxamide] | > 7.00
Cc1cnn(C)c1-c1ccc(NC(=O)[C@@H](NC(=O)C2(F)CC2)[C@@H]2CCc3ccc(-c4cncc(N5C[C@@H]6C[C@H]5CO6)n4)cc32)cc1 [Example 379, N-[(1S)-2-[4-(2,4-dimethylpyrazol-3-yl)anilino]-1-[(1R)-6-[6-[(1S,4S)-2-oxa-5-azabicyclo[2.2.1]heptan-5-yl]pyrazin-2-yl]indan-1-yl]-2-oxo-ethyl]-1-fluoro-cyclopropanecarboxamide] | > 7.00
Cc1cnn(C)c1-c1ccc(NC(=O)[C@@H](NC(=O)OC(C)(C)C)[C@@H](c2cccc(-c3ccnc(N4C[C@@H]5C[C@H]4CO5)c3)c2)C2CC2)cc1 [Example 346, tert-butyl N-[(1S)-1-[(R)-cyclopropyl-[3-[2-[(1S,4S)-2-oxa-5-azabicyclo[2.2.1]heptan-5-yl]-4-pyridyl]phenyl]methyl]-2-[4-(2,4-dimethylpyrazol-3-yl)anilino]-2-oxo-ethyl]carbamate] | > 7.00
CC(C)Cn1cc(-c2ccc(Cl)c(C[C@H](NC(=O)c3ccnn3C)C(=O)Nc3ccc(-c4cncn4C)cc3)c2)nn1 [Example 212, N-[(1S)-1-[[2-chloro-5-(1-isobutyltriazol-4-yl)phenyl]methyl]-2-[4-(3-methylimidazol-4-yl)anilino]-2-oxo-ethyl]-2-methyl-pyrazole-3-carboxamide] | 6.00 to 7.00
Cc1cnn(C)c1-c1ccc(NC(=O)[C@@H](NC(=O)C2(F)CC2)[C@@H]2CCCc3ccc(-c4ccnc(N5C[C@H]6C[C@@H]5CO6)c4)cc32)cc1 [Example 399, N-[(1S)-2-[4-(2,4-dimethylpyrazol-3-yl)anilino]-1-[(1R)-7-[2-[(1R,4R)-2-oxa-5-azabicyclo[2.2.1]heptan-5-yl]-4-pyridyl]tetralin-1-yl]-2-oxo-ethyl]-1-fluoro-cyclopropanecarboxamide] | > 7.00
Cc1n[nH]c(C)c1-c1ccc(NC(=O)[C@@H](NC(=O)C2(F)CC2)[C@@H]2CCc3ccc(-c4ccnc(N5C[C@H]6C[C@@H]5CO6)c4)cc32)cc1 [Example 362, N-[(1S)-2-[4-(3,5-dimethyl-1H-pyrazol-4-yl)anilino]-1-[(1R)-6-[2-[(1R,4R)-2-oxa-5-azabicyclo[2.2.1]heptan-5-yl]-4-pyridyl]indan-1-yl]-2-oxo-ethyl]-1-fluoro-cyclopropanecarboxamide] | > 7.00
Cc1n[nH]c(C)c1-c1ccc(NC(=O)[C@H](Cc2cc(-c3ccnc(N4CCCC5(COC5)C4)n3)ccc2Cl)NC(=O)C2(F)CC2)cc1 [Example 319, N-[(1S)-1-[[2-chloro-5-[2-(2-oxa-8-azaspiro[3.5]nonan-8-yl)pyrimidin-4-yl]phenyl]methyl]-2-[4-(3,5-dimethyl-1H-pyrazol-4-yl)anilino]-2-oxo-ethyl]-1-fluoro-cyclopropanecarboxamide] | > 7.00
CC(C)n1cc(-c2cccc(C(c3ccccc3)C(NC(=O)OC3CC3)C(=O)Nc3ccc(-c4cncn4C)cc3)c2)ccc1=O (single isomer, unassigned) [Example 231, Cyclopropyl N-[1-[[3-(1-isopropyl-6-oxo-3-pyridyl)phenyl]-phenyl-methyl]-2-[4-(3-methylimidazol-4-yl)anilino]-2-oxo-ethyl]carbamate] | 6.00 to 7.00
Cc1n[nH]c(C)c1-c1ccc(NC(=O)[C@@H](NC(=O)C2(F)CC2)[C@@H]2CCc3ccc(-c4cc(C(C)C)ncn4)cc32)cc1 [Example 353, N-[(1S)-2-[4-(3,5-dimethyl-1H-pyrazol-4-yl)anilino]-1-[(1R)-6-(6-isopropylpyrimidin-4-yl)indan-1-yl]-2-oxo-ethyl]-1-fluoro-cyclopropanecarboxamide] | 6.00 to 7.00
Cc1n[nH]cc1-c1ccc(NC(=O)C(NC(=O)c2ccnn2C)C(c2ccccc2)c2cccc(-c3ccc(=O)n(C(C)C)c3)c2)cc1 (single isomer, unassigned; diastereomer 1) [Example 235, N-[1-[[3-(1-isopropyl-6-oxo-3-pyridyl)phenyl]-phenyl-methyl]-2-[4-(3-methyl-1H-pyrazol-4-yl)anilino]-2-oxo-ethyl]-2-methyl-pyrazole-3-carboxamide (Diastereomer 1)] | > 7.00

Other lines, results leading:

pEC50 | SMILES
< 6.00 | Cc1cc(-c2ccc(Cl)c(CC(NC(=O)c3ccnn3C)C(=O)Nc3ccc(-c4nncn4C4CC4)cc3)c2)ccn1 (centres unmarked) [Example 73, N-[1-[[2-chloro-5-(2-methyl-4-pyridyl)phenyl]methyl]-2-[4-(4-cyclopropyl-1,2,4-triazol-3-yl)anilino]-2-oxo-ethyl]-2-methyl-pyrazole-3-carboxamide]
> 7.00 | Cc1nocc1C(=O)N[C@@H](Cc1cc(-c2ccc(=O)n(C(C)C)c2)ccc1Cl)C(=O)Nc1ccc(-c2cncn2C)c(O)c1 [Example 132, N-[(1S)-1-[[2-chloro-5-(1-isopropyl-6-oxo-3-pyridyl)phenyl]methyl]-2-[3-hydroxy-4-(3-methylimidazol-4-yl)anilino]-2-oxo-ethyl]-3-methyl-isoxazole-4-carboxamide]
6.00 to 7.00 | Cc1ncn(C)c1-c1ccc(NC(=O)[C@H](Cc2cc(-c3ccnc(N4CCN(C)CC4)c3)ccc2Cl)NC(=O)OC2CC2)cc1 [Example 211, cyclopropyl N-[(1S)-1-[[2-chloro-5-[2-(4-methylpiperazin-1-yl)-4-pyridyl]phenyl]methyl]-2-[4-(3,5-dimethylimidazol-4-yl)anilino]-2-oxo-ethyl]carbamate]
6.00 to 7.00 | CC(C)c1cc(-c2ccc(Cl)c(CC(NC(=O)c3ccnn3C)C(=O)Nc3ccc(-c4nncn4C)cc3)c2)ccc1C#N (centres unmarked) [Example 202, N-[1-[[2-chloro-5-(4-cyano-3-isopropyl-phenyl)phenyl]methyl]-2-[4-(4-methyl-1,2,4-triazol-3-yl)anilino]-2-oxo-ethyl]-2-methyl-pyrazole-3-carboxamide]
6.00 to 7.00 | CCc1cccc(-c2ccc(Cl)c(CC(NC(=O)c3ccnn3C)C(=O)Nc3ccc(-c4nncn4C)cc3)c2)c1 (centres unmarked) [Example 108, N-[1-[[2-chloro-5-(3-ethylphenyl)phenyl]methyl]-2-[4-(4-methyl-1,2,4-triazol-3-yl)anilino]-2-oxo-ethyl]-2-methyl-pyrazole-3-carboxamide]
6.00 to 7.00 | CC(C)n1cc(-c2ccc(Cl)c(C[C@H](NC(=O)C3(F)CCC3)C(=O)Nc3ccc(-c4cncn4C)cc3)c2)ccc1=O [Example 147, N-[(1S)-1-[[2-chloro-5-(1-isopropyl-6-oxo-3-pyridyl)phenyl]methyl]-2-[4-(3-methylimidazol-4-yl)anilino]-2-oxo-ethyl]-1-fluoro-cyclobutanecarboxamide]
< 6.00 | CC(C)n1cc(-c2ccc(Cl)c(C[C@H](NC(=O)[C@@H]3CC3(F)F)C(=O)Nc3ccc(-c4nncn4C)cc3)c2)ccc1=O [Example 287, (1S)-N-[(1S)-1-[[2-chloro-5-(1-isopropyl-6-oxo-3-pyridyl)phenyl]methyl]-2-[4-(4-methyl-1,2,4-triazol-3-yl)anilino]-2-oxo-ethyl]-2,2-difluoro-cyclopropanecarboxamide]
< 6.00 | CC(C)n1cc(-c2ccc(Cl)c(C[C@H](NC(=O)O[C@H](C)C(F)(F)F)C(=O)Nc3ccc(-c4nncn4C)cc3)c2)ccc1=O [Example 286, [(1R)-2,2,2-trifluoro-1-methyl-ethyl] N-[(1S)-1-[[2-chloro-5-(1-isopropyl-6-oxo-3-pyridyl)phenyl]methyl]-2-[4-(4-methyl-1,2,4-triazol-3-yl)anilino]-2-oxo-ethyl]carbamate]
6.00 to 7.00 | Cn1cncc1-c1ccc(NC(=O)C(Cc2cc(-c3ccnc(N4CC[C@H](CO)C4)c3)ccc2Cl)NC(=O)c2ccnn2C)cc1 (stereo partly drawn) [Example 185, N-[1-[[2-chloro-5-[2-[(3S)-3-(hydroxymethyl)pyrrolidin-1-yl]-4-pyridyl]phenyl]methyl]-2-[4-(3-methylimidazol-4-yl)anilino]-2-oxo-ethyl]-2-methyl-pyrazole-3-carboxamide]
> 7.00 | CC(C)N(C)c1cc(-c2ccc(Cl)c(CC(NC(=O)c3ccnn3C)C(=O)Nc3ccc(-c4cncn4C)cc3)c2)ccn1 (centres unmarked) [Example 159, N-[1-[[2-chloro-5-[2-[isopropyl(methyl)amino]-4-pyridyl]phenyl]methyl]-2-[4-(3-methylimidazol-4-yl)anilino]-2-oxo-ethyl]-2-methyl-pyrazole-3-carboxamide]
6.00 to 7.00 | Cc1ncn(C)c1-c1ccc(NC(=O)[C@H](Cc2cc(-c3ccc(=O)n(C(C)C)c3)ccc2Cl)NC(=O)c2ccnn2C)cc1 [Example 143, N-[(1S)-1-[[2-chloro-5-(1-isopropyl-6-oxo-3-pyridyl)phenyl]methyl]-2-[4-(3,5-dimethylimidazol-4-yl)anilino]-2-oxo-ethyl]-2-methyl-pyrazole-3-carboxamide]
< 6.00 | Cc1ncnn1-c1ccc(NC(=O)C(Cc2cc(-c3ccc(=O)n(C(C)C)c3)ccc2Cl)NC(=O)c2ccnn2C)cc1 (centres unmarked) [Example 88, N-[1-[[2-chloro-5-(1-isopropyl-6-oxo-3-pyridyl)phenyl]methyl]-2-[4-(5-methyl-1,2,4-triazol-1-yl)anilino]-2-oxo-ethyl]-2-methyl-pyrazole-3-carboxamide]
6.00 to 7.00 | CC(C)n1cc(-c2ccc(Cl)c(CC(NC(=O)c3ccnn3C)C(=O)Nc3ccc(-c4c[nH]nc4C(F)(F)F)cc3)c2)ccc1=O (centres unmarked) [Example 121, N-[1-[[2-chloro-5-(1-isopropyl-6-oxo-3-pyridyl)phenyl]methyl]-2-oxo-2-[4-[3-(trifluoromethyl)-1H-pyrazol-4-yl]anilino]ethyl]-2-methyl-pyrazole-3-carboxamide]
